From patent US20250134869A1, “Pyrrolo[2,3-d]pyrimidinyl, Pyrrolo[2,3-b]pyrazinyl and Pyrrolo[2,3-d]pyridinyl Acryla-mides” (Pfizer Inc, priority 2021, published 2025)
Where two headings read alike, the source gives them in different places.

Assays:
[1] = Stability of JAK3 covalent inhibitors in human whole blood; details: 1 μM, 37° C.
From the text: Stability of JAK3 Covalent Inhibitors in Rat and Human Whole Blood
Rat blood was collected from 3 male Sprague-Dawley rats (200-250 g, Charles River Laboratories) and pooled for each study. Human blood was collected from one male and one female healthy subjects at the Occupational Health & Wellness Center at Pfizer, Groton, CT and pooled for each study. Both rat and human blood was collected freshly into K2-EDTA tubes and kept on ice. An aliquot of the blood was transferred to microtubes and pre-warmed for 10 min at 37° C. using a heat block. […] An aliquot of the incubation mixture was removed at designated time points during the course of the incubation, mixed with an aliquot of acetonitrile containing an internal standard, vortexed and centrifuged. The resulting supernatants were removed and subjected to LC-MS/MS analyses to determine parent compound concentrations. Peak area ratios of the parent compound vs the internal standard were used to determine the % of parent compound remaining vs incubation time.

[2] = test system: IL-15 induced P-STAT5 in human PBMC; assay: PBMC IL-15 induced P-STAT5; type: cell-based; details: read-out: PBMC IL15-pSTAT5 IC50
Procedure: PBMC IL-15 Induced P-STAT5
Frozen human PBMC (200-250 million cells/vial) was thawed at 37° C. The cells were transferred to 10 mL warm medium in a 50-mL conical tube, and centrifuged at 1,200 RPM at room temperature for 5 min. The supernatant was aspirated. […] After adding 47 ml D-PBS (37° C.) to PBMC/FBS suspension, centrifuging at 1,200 RPM at room temperature for 5 min, and aspirating the supernatant, the cells were resuspended in 20 mL warm RPMI medium. Ninety μL of cell suspension were pipetted per well in a 96-well, deep-well, V-bottom plate, and the plate was incubated at 37° C. for 30 min. […] After adding 0.8 mL staining buffer per well, the plates were centrifuged at 1,200 RPM (Beckman GS-6R or Sorvall Legend) at room temperature for 5 min, and again the supernatant was aspirated using a 8-channel or 12-channel manifold. The plate was vortexed, and 0.35 mL 90% methanol/10% H2O (−20° C.) was added per well, and the plate incubated on ice for 20 min. After again adding 0.8 mL staining buffer per well, the plates were centrifuged at 1,200 RPM (Beckman GS-6R or Sorvall Legend) at room temperature for 5 min, and again the supernatant was aspirated using a 8-channel or 12-channel manifold, and then 0.8 mL Staining buffer was added per well. After once again adding 0.8 mL staining buffer per well, the plates were centrifuged at 1,200 RPM (Beckman GS-6R or Sorvall Legend) at room temperature for 5 min, and again the supernatant was aspirated using a 8-channel or 12-channel manifold. […] Samples of 250 μL/well were transferred to a 96-well U-bottom plate, and the FACS analysis was performed gating on total lymphocytes. Samples were analyzed using a BD Calibur™ or BD FACSCanto™ flow cytometer equipped with the BD High Throughput Sampler.

[3] = test system: IL-15 induced STAT5 phosphorylation in human whole blood lymphocytes; assay: HWB IL-15 induced STAT5 phosphorylation assay; type: cell-based; details: IL-15 stimulated, read-out: HWB-IL15-pSTAT5 IC50
Procedure: HWB IL-15 Induced STAT5 Phosphorylation Assay
After mixing and incubating for 45 minutes at 37° C., 5 μl D-PBS (unstimulated control) or 20× stocks of 5 μl human IL-15 (final concentration is 50 ng/ml) were added, and mixed three times. After incubating 15 minutes at 37° C., 1× Lyse/Fix Buffer (BD Phosflow 5× Lyse/Fix Buffer) was added to all wells at 1000 μl/well, then incubated for 20 minutes at 37° C. and spun 5 mins at 1200 rpm. […] Following incubating at 4° C. over night, all the samples were transferred to 96-well polypropylene U-bottom plate, and checked by flow cytometry gated on total lymphocytes.

JAK3 enzyme = JAK3 enzyme (Homo sapiens (Human), UniProt P52333); assay: JAK Caliper Enzyme Assay at 4 μM or 1 mM ATP; type: biochemical
Chain of JAK3 enzyme (P52333 whole entry, species assumed): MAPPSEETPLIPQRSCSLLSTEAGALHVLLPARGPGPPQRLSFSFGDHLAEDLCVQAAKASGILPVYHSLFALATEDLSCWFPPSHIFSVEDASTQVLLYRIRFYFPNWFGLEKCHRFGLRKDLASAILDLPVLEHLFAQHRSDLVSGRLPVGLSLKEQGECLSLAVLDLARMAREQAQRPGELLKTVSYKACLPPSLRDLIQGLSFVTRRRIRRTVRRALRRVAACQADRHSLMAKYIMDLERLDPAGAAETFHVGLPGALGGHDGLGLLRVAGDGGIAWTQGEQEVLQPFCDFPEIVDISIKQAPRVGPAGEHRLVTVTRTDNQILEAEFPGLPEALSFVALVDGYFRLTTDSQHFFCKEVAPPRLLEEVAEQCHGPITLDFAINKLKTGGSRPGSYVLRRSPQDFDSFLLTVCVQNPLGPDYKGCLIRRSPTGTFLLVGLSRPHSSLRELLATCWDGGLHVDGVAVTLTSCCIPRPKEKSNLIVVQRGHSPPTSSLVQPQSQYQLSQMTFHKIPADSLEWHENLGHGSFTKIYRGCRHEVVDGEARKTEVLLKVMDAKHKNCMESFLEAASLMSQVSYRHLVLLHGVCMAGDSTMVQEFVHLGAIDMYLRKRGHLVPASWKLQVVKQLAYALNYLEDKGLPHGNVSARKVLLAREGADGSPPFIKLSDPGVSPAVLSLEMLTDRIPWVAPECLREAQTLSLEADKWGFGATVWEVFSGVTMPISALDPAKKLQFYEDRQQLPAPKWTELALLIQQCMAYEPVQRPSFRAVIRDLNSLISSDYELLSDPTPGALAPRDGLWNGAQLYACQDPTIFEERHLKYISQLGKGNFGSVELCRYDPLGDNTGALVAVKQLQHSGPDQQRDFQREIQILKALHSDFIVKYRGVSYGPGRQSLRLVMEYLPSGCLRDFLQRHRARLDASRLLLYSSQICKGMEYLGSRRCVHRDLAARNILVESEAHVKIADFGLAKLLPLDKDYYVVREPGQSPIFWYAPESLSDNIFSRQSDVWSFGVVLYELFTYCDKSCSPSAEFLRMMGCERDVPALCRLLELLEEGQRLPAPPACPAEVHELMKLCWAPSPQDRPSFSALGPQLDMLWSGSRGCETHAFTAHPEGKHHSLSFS

[4] = Homo sapiens, PBMC, human PBMC, IL-15 stimulated
[5] = read-out: JAK3 (4 μM ATP) IC50, 4 μM ATP
[6] = read-out: JAK3 (1 mM ATP) IC50, 1 mM ATP

| Compound | Human blood stability t1/2 [1] [h] | IC50 ([3]; Lymphocyte) [nM] | IC50 (JAK3 enzyme; [5]) [nM] | IC50 (JAK3 enzyme; [6]) [nM] | IC50 ([2]; human PBMC, IL-15 stimulated) [nM] | further results |
| --- | --- | --- | --- | --- | --- | --- |
| C=CC(=O)N1C[C@H](Nc2ncnc3[nH]ccc23)CC[C@@H]1CO (single isomer, unassigned) [Example 7] | >5.558 | 455 |  |  |  | IC50 [2, 4]: 76.9 nM |
| C=CC(=O)N1CCC[C@@H](Nc2ccnc3[nH]cc(C#N)c23)C1 [Example 2, (R)-4-((1-acryloylpiperidin-3-yl)amino)-1H-pyrrolo[2,3-b]pyridine-3-carbonitrile] |  |  |  |  |  | Human blood stability t1/2: >6 h; IC50 [2]: 30.4 nM; IC50 (JAK3 enzyme; read-out: JAK3 (4 μM ATP) IC50): 0.2 nM; IC50 (JAK3 enzyme; read-out: JAK3 (1 mM ATP) IC50): 18.9 nM; IC50 [3]: 220 nM |
| C=CC(=O)N1CCC[C@@H](Nc2ncnc3[nH]cc(-c4ccc(C(=O)NC5CC5)c(Cl)c4)c23)C1 [Example 31, 4-(4-{[(3R)-1-acryloylpiperidin-3-yl]amino}-7H-pyrrolo[2,3-d]pyrimidin-5-yl)-2-chloro-N-cyclopropylbenzamide] |  |  |  |  |  | Human blood stability t1/2: >6 h; IC50 (JAK3 enzyme; read-out: JAK3 (4 μM ATP) IC50): 24.1 nM; IC50 (JAK3 enzyme; read-out: JAK3 (1 mM ATP) IC50): 1860 nM |
| C/C=C/C(=O)N1CCC[C@@H](Nc2ncnc3[nH]ccc23)C1 [Example 105, (2E)-1-[(3R)-3-(7H-pyrrolo[2,3-d]pyrimidin-4-ylamino)piperidin-1-yl]but-2-en-1-one] | >6 |  | 2480 | > 10000 |  |  |
| C=CC(=O)N1CC(Nc2ncnc3[nH]ccc23)CCC1CO (stereo not drawn) [Example 118, 1-[2-(Hydroxymethyl)-5-(7H-pyrrolo[2,3-d]pyrimidin-4-ylamino)piperidin-1-yl]prop-2-en-1-one] | >5.558 |  |  |  | > 10000 |  |
| C=CC(=O)N1C[C@H](Nc2ncnc3[nH]ccc23)CC[C@@H]1CO [Example 161, 1-[(2R,5R)-2-(Hydroxymethyl)-5-(7H-pyrrolo[2,3-d]pyrimidin-4-ylamino)piperidin-1-y]prop-2-en-1-one] | >5.392 |  |  |  | 76.9 | IC50 [3]: 455 nM |
| C=CC(=O)N1CCC(Oc2cnc3[nH]cc(-c4cnn(C)c4)c3n2)CC1 [Example 218, 1-(4-{[7-(1-methyl-1H-pyrazol-4-yl)-5H-pyrrolo[2,3-b]pyrazin-2-yl]oxy}piperidin-1-yl)prop-2-en-1-one] |  | 6190 | 0.6 | 81.1 |  | IC50 [2, 4]: 345 nM |
| C=CC(=O)N1CCC(Nc2cnc3[nH]cc(C(=O)N[C@@H]4C[C@H]4C(F)(F)F)c3n2)CC1 [Example 233, 2-[(1-acryloylpiperidin-4-yl)amino]-N-[(1R,2R)-2-(trifluoromethyl)cyclopropyl]-5H-pyrrolo[2,3-b]pyrazine-7-carboxamide] |  | 532 | 0.2 | 20.6 | 213 |  |
